Test results from patent US12516019B2, “Amphoteric compounds” (Eastman Chemical Company, priority 2015, dated 2026).

Experiments:
[1] = Foam height test, Standard Test Method for Foaming Properties of Surface-Active Agents (ASTM 1173-07); format: physicochemical; conditions: 49° C.; for Foam height at time t = 0: t = 0 min; for Foam height at time t = 1: t = 1 min; for Foam height at time t = 2: t = 2 min; for Foam height at time t = 3: t = 3 min; for Foam height at time t = 4: t = 4 min; for Foam height at time t = 5: t = 5 min
Source text: The Standard Test Method for Foaming Properties of Surface-Active Agents (ASTM 1173-07) for 0.1 wt % and 1.0 wt % was used to determine the foaming properties of the amphoteric compounds of the formula 1 described herein. This method generates foam under low-agitation conditions and is generally used for moderate- and high-foam surfactants. This test gathers data on initial foam height and foam decay. Foam decay provides information on foam stability.
The apparatus for carrying out this test includes a jacketed column and a pipet. The jacketed column serves as a receiver, while the pipet delivers the surface-active solution.
Solutions of each surface-active agent to be measured were prepared in borosilicate glass jars a day ahead of time, using ambient temperature ingredients, and were slowly rolled overnight to homogenize. The solutions were then removed from the rollers and equilibrated in a constant temperature bath (49° C.+/−1° C.) for at least 1 hour before measurement. The solution of the amphoteric compound to be tested was added to the receiver (50 mL) and to the pipet (200 mL). The pipet was positioned above the receiver and opened. As the solution fell and made contact with the solution in the receiver, foam was generated. When the pipet was empty, the time was noted and an initial foam height was recorded. The foam height was recorded each minute for five minutes. Exact size specifications for the glassware can be found in ASTM 1173-07. The foam height results for each amphoteric compound 1 and representative standards are listed below in Tables 1 (0.1% concentration) and 2 (1% concentration).

[2] = Critical micelle concentration from surface tension (Wilhelmy plate, K100C Tensiometer); format: physicochemical; conditions: deionized water, ambient temperature
Method: The critical micelle concentration (CMC) is an important characteristic of a surfactant, and the CMC values were determined for the amphoteric compounds of formula 1. The CMC is defined as the concentration at which micelle formation first begins, and for surface tension determination of CMC, is typically assigned as the concentration of the intersection of two straight lines through the data, where the first line is the linear portion of the initial decline in surface tension with increasing surfactant concentration, and the second is the line of constant surface tension.
The critical micelle concentration was determined from plots of surface tension as a function of the logarithm of active surfactant concentration. Surface tension was measured via the Wilhelmy plate technique. In this method, the downward force of a rigorously clean plate probe that just contacts the liquid surface of the test sample is measured, and the surface tension is calculated from knowledge of the contact angle the liquid makes with the probe surface and the length of the probe plate.
A K100C Tensiometer (Kruss GmbH) was used to measure surface tension of solutions in a glass sample vessel. All measurements were made under ambient temperature conditions.
The tensiometer was equipped with a computer-controlled microdispensing and aspirating system to automate surfactant concentration adjustments of the test solution while maintaining constant solution volume between successive measurements. A roughened platinum plate probe was used. Cleanliness of probe, sample vessel, and microdispensing system was verified after cleaning between samples by measuring the surface tension of pure deionized water run through the system as a control.
100 mL of the 1 mg/L surfactant solution was added to the clean sample vessel and placed in the instrument. The plate probe was rinsed with deionized water and flame treated to combust off residual organic impurities, then mounted in position in the tensiometer. The experiment was initiated and run through the LabDesk version 3.2.2 (Kruss GmbH) software.
The surface tension measurements were run sequentially (and automatically) from most dilute to most concentrated by incrementally injecting known volume aliquots of the 10,000 mg/L surfactant solution into the sample, homogenizing the sample after injection by stirring for 30 seconds via a magnetic stir bar in the solution, and then aspirating out equal volume that was added to the sample vessel to keep the total sample volume constant for each measurement.
The sample vessel was then automatically moved into measurement position, and the surface tension measurement was made and recorded. This sequence was repeated until all concentrations had been measured.
The active surfactant concentration range spanned from 1 mg/L to 5000 mg/L over 50 concentration increments, equally spaced on a logarithmic scale over the full range of concentrations measured.
The sample at each concentration was measured 10 times, and the average of the 10 measures was plotted against the logarithm of the surfactant concentration.
After completing the full range of concentrations, the software provided best-fit lines to estimate CMC, and these regression lines were manually adjusted as needed to give the broadest range of linear behavior for each line.

Compound: (5-Laurylamino-5-oxopentyl)dimethylammonioacetate [Example 20]
- Foam height at time t = 0 ([1]; 1 g/L (0.1 weight %)): 180 mm
- Foam height at time t = 1 ([1]; 1 g/L (0.1 weight %)): 175 mm
- Foam height at time t = 2 ([1]; 1 g/L (0.1 weight %)): 170 mm
- Foam height at time t = 3 ([1]; 1 g/L (0.1 weight %)): 170 mm
- Foam height at time t = 4 ([1]; 1 g/L (0.1 weight %)): 170 mm
- Foam height at time t = 5 ([1]; 1 g/L (0.1 weight %)): 170 mm
- Foam height at time t = 0 ([1]; 10 g/L (1.0 weight %)): 175 mm
- Foam height at time t = 1 ([1]; 10 g/L (1.0 weight %)): 170 mm
- Foam height at time t = 2 ([1]; 10 g/L (1.0 weight %)): 170 mm
- Foam height at time t = 3 ([1]; 10 g/L (1.0 weight %)): 170 mm
- Foam height at time t = 4 ([1]; 10 g/L (1.0 weight %)): 165 mm
- Foam height at time t = 5 ([1]; 10 g/L (1.0 weight %)): 160 mm

Compound: CCCCCCCCCCCCNC(=O)CCCC[N+](C)(C)CC(O)CS(=O)(=O)[O-] (stereo not drawn) [Example 21, 3-((5-laurylamino-5-oxopentyl)dimethylammonio)-2-hydroxypropanesulfonate]
- Foam height at time t = 0 ([1]; 1 g/L (0.1 weight %)): 157 mm
- Foam height at time t = 1 ([1]; 1 g/L (0.1 weight %)): 156 mm
- Foam height at time t = 2 ([1]; 1 g/L (0.1 weight %)): 153 mm
- Foam height at time t = 3 ([1]; 1 g/L (0.1 weight %)): 151 mm
- Foam height at time t = 4 ([1]; 1 g/L (0.1 weight %)): 149 mm
- Foam height at time t = 5 ([1]; 1 g/L (0.1 weight %)): 147 mm
- Foam height at time t = 0 ([1]; 10 g/L (1.0 weight %)): 173 mm
- Foam height at time t = 1 ([1]; 10 g/L (1.0 weight %)): 171 mm
- Foam height at time t = 2 ([1]; 10 g/L (1.0 weight %)): 170 mm
- Foam height at time t = 3 ([1]; 10 g/L (1.0 weight %)): 170 mm
- Foam height at time t = 4 ([1]; 10 g/L (1.0 weight %)): 170 mm
- Foam height at time t = 5 ([1]; 10 g/L (1.0 weight %)): 169 mm
- Critical micelle concentration (CMC) [2]: 104.5 mg/L

Compound: CCCCCCCCCCCCOC(=O)CCCC[N+](C)(C)CC(O)CS(=O)(=O)[O-] (stereo not drawn) [Example 9, 3-(4-(Lauryloxycarbonylbutyl)dimethylammonio)-2-hydroxypropanesulfonate]
- Foam height at time t = 0 ([1]; 1 g/L (0.1 weight %)): 185 mm
- Foam height at time t = 1 ([1]; 1 g/L (0.1 weight %)): 175 mm
- Foam height at time t = 2 ([1]; 1 g/L (0.1 weight %)): 173 mm
- Foam height at time t = 3 ([1]; 1 g/L (0.1 weight %)): 170 mm
- Foam height at time t = 4 ([1]; 1 g/L (0.1 weight %)): 170 mm
- Foam height at time t = 5 ([1]; 1 g/L (0.1 weight %)): 170 mm
- Foam height at time t = 0 ([1]; 10 g/L (1.0 weight %)): 195 mm
- Foam height at time t = 1 ([1]; 10 g/L (1.0 weight %)): 190 mm
- Foam height at time t = 2 ([1]; 10 g/L (1.0 weight %)): 180 mm
- Foam height at time t = 3 ([1]; 10 g/L (1.0 weight %)): 180 mm
- Foam height at time t = 4 ([1]; 10 g/L (1.0 weight %)): 180 mm
- Foam height at time t = 5 ([1]; 10 g/L (1.0 weight %)): 180 mm

Compound: CCCCCCCCCCCCNC(=O)CCC[N+](C)(C)CC(O)CS(=O)(=O)[O-] (stereo not drawn) [Example 12, 3-((4-laurylamino-4-oxobutyl)dimethylammonio)-2-hydroxy-propanesulfonate]
- Foam height at time t = 0 ([1]; 1 g/L (0.1 weight %)): 160 mm
- Foam height at time t = 1 ([1]; 1 g/L (0.1 weight %)): 157 mm
- Foam height at time t = 2 ([1]; 1 g/L (0.1 weight %)): 155 mm
- Foam height at time t = 3 ([1]; 1 g/L (0.1 weight %)): 153 mm
- Foam height at time t = 4 ([1]; 1 g/L (0.1 weight %)): 151 mm
- Foam height at time t = 5 ([1]; 1 g/L (0.1 weight %)): 150 mm
- Foam height at time t = 0 ([1]; 10 g/L (1.0 weight %)): 182 mm
- Foam height at time t = 1 ([1]; 10 g/L (1.0 weight %)): 180 mm
- Foam height at time t = 2 ([1]; 10 g/L (1.0 weight %)): 178 mm
- Foam height at time t = 3 ([1]; 10 g/L (1.0 weight %)): 177 mm
- Foam height at time t = 4 ([1]; 10 g/L (1.0 weight %)): 176 mm
- Foam height at time t = 5 ([1]; 10 g/L (1.0 weight %)): 175 mm
- Critical micelle concentration (CMC) [2]: 80.9 mg/L

Compound: cocamidopropyl betaine [reference compound]
- Foam height at time t = 0 ([1]; 1 g/L (0.1 weight %)): 160 mm
- Foam height at time t = 1 ([1]; 1 g/L (0.1 weight %)): 159 mm
- Foam height at time t = 2 ([1]; 1 g/L (0.1 weight %)): 158 mm
- Foam height at time t = 3 ([1]; 1 g/L (0.1 weight %)): 158 mm
- Foam height at time t = 4 ([1]; 1 g/L (0.1 weight %)): 158 mm
- Foam height at time t = 5 ([1]; 1 g/L (0.1 weight %)): 158 mm
- Foam height at time t = 0 ([1]; 10 g/L (1.0 weight %)): 174 mm
- Foam height at time t = 1 ([1]; 10 g/L (1.0 weight %)): 172 mm
- Foam height at time t = 2 ([1]; 10 g/L (1.0 weight %)): 171 mm
- Foam height at time t = 3 ([1]; 10 g/L (1.0 weight %)): 171 mm
- Foam height at time t = 4 ([1]; 10 g/L (1.0 weight %)): 170 mm
- Foam height at time t = 5 ([1]; 10 g/L (1.0 weight %)): 170 mm
- Critical micelle concentration (CMC) [2]: 12.7 mg/L

Compound: (4-Lauryloxycarbonylbutyl)dimethylammonioacetate [Example 8]
- Foam height at time t = 0 ([1]; 10 g/L (1.0 weight %)): 185 mm
- Foam height at time t = 1 ([1]; 10 g/L (1.0 weight %)): 175 mm
- Foam height at time t = 2 ([1]; 10 g/L (1.0 weight %)): 170 mm
- Foam height at time t = 3 ([1]; 10 g/L (1.0 weight %)): 170 mm
- Foam height at time t = 4 ([1]; 10 g/L (1.0 weight %)): 170 mm
- Foam height at time t = 5 ([1]; 10 g/L (1.0 weight %)): 165 mm

Compound: cocamidopropyl hydroxysultaine [reference compound]
- Critical micelle concentration (CMC) [2]: 9.5 mg/L

Compound: CCCCCCCCCCCCOC(=O)CCC[N+](C)(C)CC(O)CS(=O)(=O)[O-] (stereo not drawn) [Example 4, 3-(3-(Lauryloxycarbonylpropyl)dimethylammonio)-2-hydroxypropanesulfonate]
- Foam height at time t = 0 ([1]; 1 g/L (0.1 weight %)): 142 mm
- Foam height at time t = 1 ([1]; 1 g/L (0.1 weight %)): 139 mm
- Foam height at time t = 2 ([1]; 1 g/L (0.1 weight %)): 135 mm
- Foam height at time t = 3 ([1]; 1 g/L (0.1 weight %)): 132 mm
- Foam height at time t = 4 ([1]; 1 g/L (0.1 weight %)): 129 mm
- Foam height at time t = 5 ([1]; 1 g/L (0.1 weight %)): 127 mm
- Foam height at time t = 0 ([1]; 10 g/L (1.0 weight %)): 173 mm
- Foam height at time t = 1 ([1]; 10 g/L (1.0 weight %)): 170 mm
- Foam height at time t = 2 ([1]; 10 g/L (1.0 weight %)): 167 mm
- Foam height at time t = 3 ([1]; 10 g/L (1.0 weight %)): 162 mm
- Foam height at time t = 4 ([1]; 10 g/L (1.0 weight %)): 158 mm
- Foam height at time t = 5 ([1]; 10 g/L (1.0 weight %)): 154 mm

Compound: (3-Lauryloxycarbonylpropyl)dimethylammonioacetate [Example 3]
- Foam height at time t = 0 ([1]; 1 g/L (0.1 weight %)): 171 mm
- Foam height at time t = 1 ([1]; 1 g/L (0.1 weight %)): 170 mm
- Foam height at time t = 2 ([1]; 1 g/L (0.1 weight %)): 170 mm
- Foam height at time t = 3 ([1]; 1 g/L (0.1 weight %)): 169 mm
- Foam height at time t = 4 ([1]; 1 g/L (0.1 weight %)): 169 mm
- Foam height at time t = 5 ([1]; 1 g/L (0.1 weight %)): 169 mm
- Foam height at time t = 0 ([1]; 10 g/L (1.0 weight %)): 165 mm
- Foam height at time t = 1 ([1]; 10 g/L (1.0 weight %)): 162 mm
- Foam height at time t = 2 ([1]; 10 g/L (1.0 weight %)): 160 mm
- Foam height at time t = 3 ([1]; 10 g/L (1.0 weight %)): 158 mm
- Foam height at time t = 4 ([1]; 10 g/L (1.0 weight %)): 158 mm
- Foam height at time t = 5 ([1]; 10 g/L (1.0 weight %)): 156 mm
- Critical micelle concentration (CMC) [2]: 24.2 mg/L

Compound: CCCCCCCCCCCC[N+](C)(C)CCCS(=O)(=O)[O-] [N-lauryl-N,N-dimethyl-3-ammonio-1-propanesulfonate, reference compound]
- Critical micelle concentration (CMC) [2]: 962 mg/L
